Reference: patent publication EP0693064B1, “HYDROPHOBIC AMINOCOUMARIN DERIVATIVES AND THEIR USE AS PROTEOLYTIC ENZYME SUBSTRATES OR IN THE PREPARATION OF SUCH SUBSTRATES” (priority 1993, dated 1994)
“Also recorded” adds a separate entry of the source.

What was measured:
Enterococcus faecalis = assay: Agar test with incorporated fluorogenic substrates (L-alanine aminoaryl peptidase activity), fluorescence of colonies; type: cell-based; conditions: Gram +, substrate in agar 10 to 300 µg/ml, pH 7, overnight at 37°C, UV 365 nm
Excerpt: (§1) Cette différenciation fait appel à une méthode spécifique de discrimination optique des bactéries à coloration de Gram(+) ou Gram(-), qui est réalisée par l'utilisation de substrats fluorogénes de la L-alanine amino arylpeptidase, activité enzymatique retrouvée principalement dans la paroi des bactéries à coloration de Gram(-), comme il est décrit par Cerny G dans European Journal of Applied Microbiology, 1976, 3, p. 223-225, et 1978 5, p. 113-122.
(§2) Dans cet exemple, on utilise cette méthode de détection des activités enzymatiques bactériennes de la L-alanine aminoaryl peptidase avec les substrats fluorogènes S107, S108 et S109 utilisant les composés 10e, 10c et 10d des exemples 15, 13 et 14. Ces substrats sont incorporés à la gélose selon la méthode énoncée par Manafi & Kneifel dans Journal of Applied Bacteriology 1990, 69, p. 822-827.
(§3) Tous les substrats (composés 10c, 10d et […]) sont incorporés à la gélose à différentes concentrations couvrant une gamme de 10 à 300µg/ml.
(§4) Les composés sont préalablement dissous dans le DMSO et dilués dans de l'eau bi-distillée pour constituer des solutions mères à 800µg/ml, qui peuvent être conservées au moins une semaine à +4°C. Les solutions mères sont diluées ensuite pour délivrer les paliers de concentrations définis à 10, 50, 100, 200 et 300µg/ml.
(§5) Ces substrats sont ajoutés à la gélose à 45°C (une température de 85°C fut tolérée par les substrats), préalablement tamponnée à pH=7 et stérilisée par autoclavage. Les boîtes de gélose sont ensuite ensemencées d'une suspension de colonies, stérilement, à l'öse de platine par stries transversales et selon la méthode des quadrants. L'incubation est poursuivie durant une nuit à 37°C.
(§6) Pour chaque concentration on réalise un banc sans colonies et pour chaque type bactérien, un contrôle de culture sans substrat, de sorte que l'on ne puisse observer que les effets de la présence simultanée des colonies et du substrat incorporé à la gélose.
(§7) La révélation des bactéries Gram(-), rendues fluorescentes par le fluorophore S107, S108 ou S109 libéré est réalisée sous lampe UV à une longueur d'onde d'excitation de 365nm, compatible avec les dispositifs commercialisés. L'émission fluorescente impressionne un papier film 35mm Kodak® Ektar® 1000/30° pour un temps d'exposition au 1/60ème de seconde-process C-41.

Escherichia coli = assay: as above; type: cell-based; conditions: Gram -, substrate in agar 10 to 300 µg/ml, pH 7, overnight at 37°C, UV 365 nm
Excerpt: as §1, §2, §3, §4, §5, §6, §7

bactéries = assay: Toxicity of the substrates towards the bacteria in the agar test; type: cell-based; conditions: substrate in agar 10 to 300 µg/ml, high concentration = 300 µg/ml
Method: as §3, §4, §5, §6

[1] = Diffusion of the released dye in the agar; type: physicochemical; conditions: in the agar (gélose)
Method: as §3, §5
La révélation des bactéries Gram(-), rendues fluorescentes par le fluorophore S107, S108 ou S109 libéré est réalisée sous lampe UV à une longueur d'onde d'excitation de 365nm, compatible avec les dispositifs commercialisés. […]
Les colorants ne diffusent pas dans la gélose, de sorte que la fluorescence n'est émise que par les colonies bactériennes au site de leur croissance. Egalement, les réactions positives (fluorescence claire, lumineuse intense, des colonies Gram négatives sur un fond translucide, estompé bleu/vert pâle, fluorescence d'intensité plus faible pour les bactéries Gram positives) s'observent dès les concentrations faibles à 10µg/ml, ce qui confirme l'utilité de la nature hydrophobe des substrats, de l'absence de diffusion qui en découle et donc de l'efficacité des substrats préparés.

[2] = system: bactéries Gram(+) et Gram(-); assay: Differentiation of Gram(+) and Gram(-) bacteria with fluorogenic substrates incorporated in agar; type: cell-based; conditions: in agreement with Gram staining
Excerpt: Exemple 22. Cet exemple illustre l'utilisation des dérivés de coumarines des exemples 13, 14 et 15 pour La différenciation des bactéries Gram(+) et Gram(-)par incorporation de ces dérivés de coumarines et révélation des colonies fluorescentes.
as §1, §2
Tous les substrats (composés 10c, 10d et […]) sont incorporés à la gélose à différentes concentrations couvrant une gamme de 10 à 300µg/ml. […]

Row | Compound | Test gélose aux substrats (fluorescence) (Enterococcus faecalis) | Test gélose aux substrats (fluorescence) (Escherichia coli) | Toxicité (bactéries) | Diffusion [1] | discrimination des bactéries Gram négatives des bactéries Gram positives [2]
1 | CCCCCCCCCc1cc(=O)oc2cc(NC(=O)[C@H](C)N)ccc12 [S107] | Fluorescence très faible | Fluorescence moyenne | faible; also recorded: non toxiques; also recorded: Toxicité partielle à forte concentration | non diffusibles; also recorded: Diffusion nulle | –
2 | CCCCCCc1cc(=O)oc2cc(NC(=O)[C@H](C)N)ccc12 [S108] | Fluorescence faible | Fluorescence très importante | non toxiques; also recorded: Toxicité nulle | non diffusibles; also recorded: Diffusion nulle | très efficaces
